Tests used:
Assay in all cases: relative viability (nuclei count vs DMSO), 5 days (fraction); higher = more cells survive
Tanzisertib + Luminespib = compound: O[C@H]1CC[C@H](Nc2ncc3nc(Nc4c(F)cc(F)cc4F)n([C@H]4CCOC4)c3n2)CC1 [Tanzisertib] + CCNC(=O)c1noc(-c2cc(C(C)C)c(O)cc2O)c1-c1ccc(CN2CCOCC2)cc1 [Luminespib] (partner 0.01 µM)
Summary of the method: (§1)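 One day after seeding in 1536-well plates, lung cancer cell lines were dosed by pin tool. Dosing was either single-drug or a fixed anchor-drug dose plus five library-drug doses (not always all listed) in √10 steps. After 5 days, nuclei were stained in one fix-and-stain step and counted on 4× images, and relative viability is the nuclei count of treated wells over that of vehicle wells, given as the median of duplicate plates.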

Tanzisertib + Lapatinib = compound: O[C@H]1CC[C@H](Nc2ncc3nc(Nc4c(F)cc(F)cc4F)n([C@H]4CCOC4)c3n2)CC1 [Tanzisertib] + CS(=O)(=O)CCNCc1ccc(-c2ccc3ncnc(Nc4ccc(OCc5cccc(F)c5)c(Cl)c4)c3c2)o1 [Lapatinib] (partner 2 µM)
Summary of the method: as §1

[1] = compound: C1CNCCC1C2=CC(=NN2)C3=CC=NC=C3 + Cc1nc(Nc2ncc(C(=O)Nc3c(C)cccc3Cl)s2)cc(N2CCN(CCO)CC2)n1 [Dasatinib] (partner 0.075 µM)
Summary of the method: as §1

[2] = compound: C[C@@H](N)c1ccc(C(=O)Nc2ccnc3[nH]ccc23)cc1 + CS(=O)(=O)N1CCN(Cc2cc3nc(-c4cccc5[nH]ncc45)nc(N4CCOCC4)c3s2)CC1 [Pictilisib] (partner 1 µM)
Summary of the method: as §1

Cell Line | relative viability (Tanzisertib + Luminespib; first compound 0.08 µM) | relative viability (Tanzisertib + Luminespib; first compound 0.253 µM) | relative viability (Tanzisertib + Luminespib; first compound 0.8 µM) | relative viability (Tanzisertib + Luminespib; first compound 2.53 µM) | relative viability (Tanzisertib + Luminespib; first compound 8 µM) | relative viability (Tanzisertib + Lapatinib; first compound 0.08 µM) | relative viability (Tanzisertib + Lapatinib; first compound 0.253 µM) | relative viability (Tanzisertib + Lapatinib; first compound 0.8 µM) | relative viability (Tanzisertib + Lapatinib; first compound 2.53 µM) | relative viability (Tanzisertib + Lapatinib; first compound 8 µM) | relative viability ([1]; first compound 0.08 µM) | relative viability ([1]; first compound 0.8 µM) | relative viability ([1]; first compound 2.53 µM) | relative viability ([1]; first compound 8 µM) | relative viability ([2]; first compound 0.04 µM) | relative viability ([2]; first compound 0.1265 µM) | relative viability ([2]; first compound 0.4 µM) | relative viability ([2]; first compound 1.265 µM) | relative viability ([2]; first compound 4 µM)
EMC-BAC-2 | 1.24 | 1.07 | 1.23 | 1.16 | 1.14 | 1.03 | 0.923 | 0.931 | 0.867 | 0.841 | 0.261 | 0.349 | 0.352 | 0.395 | 0.491 | 0.575 | 0.531 | 0.476 | 0.411
NCI-H1355 | 0.77 | 0.697 | 0.805 | 0.725 | 0.628 | 1.02 | 1.03 | 1.05 | 1.06 | 1.05 | 0.651 | 0.718 | 0.798 | 0.695 | 0.338 | 0.429 | 0.555 | – | 0.351
NCI-H23 | 0.262 | 0.227 | 0.203 | 0.228 | 0.199 | 1.4 | 0.998 | 0.964 | 1.05 | 0.936 | 0.826 | 0.808 | 0.805 | 0.908 | 0.605 | 0.536 | 0.487 | – | 0.557
NCI-H1651 | 0.989 | 0.802 | 0.746 | 0.921 | 0.729 | 0.898 | 1.03 | 0.797 | 0.782 | 0.864 | 0.381 | 0.404 | 0.348 | 0.486 | 0.663 | 0.646 | 0.684 | 0.808 | 0.799
NCI-H1975 | 0.331 | 0.142 | 0.232 | 0.161 | 0.247 | 1.06 | 0.944 | 0.87 | 0.942 | 0.912 | 0.405 | 0.417 | 0.492 | 0.413 | 0.281 | 0.281 | 0.287 | 0.228 | 0.236
COR-L23 | 0.588 | 0.579 | 0.669 | 0.706 | 0.639 | 1.12 | 0.954 | 0.961 | 1.07 | 0.98 | 0.532 | 0.417 | 0.518 | 0.469 | 0.621 | 0.867 | 0.799 | 0.591 | 0.562
LOU-NH91 | 0.431 | 0.345 | 0.371 | 0.33 | 0.349 | 0.782 | 0.775 | 0.64 | 0.771 | 0.716 | 0.527 | 0.572 | 0.624 | 0.545 | 0.517 | 0.517 | 0.562 | 0.398 | 0.549
NCI-H647 | 0.152 | 0.12 | 0.196 | 0.158 | 0.336 | 1.28 | 1.23 | 1.01 | 1.31 | 0.917 | 0.176 | 0.169 | 0.187 | 0.161 | 0.301 | 0.394 | 0.451 | – | 0.42
NCI-H1915 | 0.875 | 0.839 | 0.808 | 0.789 | 0.776 | 0.994 | 1 | 0.897 | 1.02 | 0.947 | 0.286 | 0.311 | 0.316 | 0.308 | 1.15 | 0.92 | 0.925 | – | 0.837
NCI-H1734 | 0.208 | 0.206 | 0.214 | 0.197 | 0.203 | 1.15 | 1.13 | 0.952 | 1.16 | 1.08 | 0.424 | 0.533 | 0.527 | 0.529 | 0.475 | 0.474 | 0.461 | – | 0.353
NCI-H1993 | 0.879 | 0.783 | 0.915 | 0.714 | 1 | 0.815 | 0.846 | 0.914 | 0.777 | 0.748 | 0.538 | 0.541 | 0.56 | 0.667 | 0.801 | 0.865 | – | 0.812 | 0.833
LK-2 | 0.224 | 0.187 | 0.191 | 0.192 | 0.181 | 1.1 | 0.895 | 1.12 | 0.996 | 0.977 | 0.236 | 0.388 | 0.275 | 0.482 | 0.79 | 0.537 | 0.739 | – | 0.822
NCI-H2405 | 0.716 | 0.713 | 0.577 | 0.676 | 0.609 | 1.26 | 1.11 | 1.1 | 1.36 | 0.612 | 0.201 | 0.213 | 0.187 | 0.202 | – | 0.433 | 0.399 | 0.194 | 0.207
HOP-62 | 0.966 | 0.924 | 0.886 | 0.91 | 0.883 | 1.25 | 0.85 | 1.06 | 1.12 | 0.511 | 0.691 | 0.635 | 0.703 | 0.648 | 0.539 | 0.413 | 0.827 | 0.0717 | 0.887
NCI-H650 | 0.725 | 0.915 | 0.884 | 0.936 | 0.855 | 0.963 | 1.14 | 1.02 | 1.06 | 0.295 | 0.468 | 0.45 | 0.5 | 0.428 | 0.81 | 0.753 | 0.704 | – | 0.708
NCI-H358 | 0.302 | 0.282 | 0.5 | 0.29 | 0.318 | 0.536 | 0.474 | 0.413 | 0.436 | 0.321 | 0.118 | 0.16 | 0.149 | 0.143 | 0.339 | 0.31 | 0.33 | 0.289 | 0.326
BEN | 0.352 | 0.77 | 0.814 | 0.382 | 0.209 | 0.773 | 0.806 | 0.721 | 0.795 | 0.712 | 0.266 | 0.286 | 0.339 | 0.326 | 0.537 | 0.454 | 0.611 | 0.617 | 0.44

Source: the supplement of paper PMC10307832
